Source: ChEMBL document CHEMBL1201862, “PubChem BioAssay data set” (2004)
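Tested at 5 concentrations; 48 h exposure; 96-well plates; endpoints linearly interpolated, else capped at highest concentration. The concentration for 50% growth inhibition is given as GI50.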 Calls of active or inactive are those of the source. No stated cut-off is given here; in the data, active = GI50 up to about 1.1 µM and inactive = higher.

Legend:
Assay in all cases: NCI anticancer screen, dose series, 48 h
A498 = tested on: A498
A549 = tested on: A549
HCT-116 = tested on: HCT-116
HL-60 = tested on: HL-60
HT-29 = tested on: HT-29
MCF7 = tested on: MCF7
MDA-MB-231 = tested on: MDA-MB-231
Malme-3M = tested on: Malme-3M
OVCAR-3 = tested on: OVCAR-3
OVCAR-4 = tested on: OVCAR-4
OVCAR-8 = tested on: OVCAR-8
PC-3 = tested on: PC-3
SF-539 = tested on: SF-539
SK-MEL-28 = tested on: SK-MEL-28
SK-MEL-5 = tested on: SK-MEL-5
U-251 = tested on: U-251
MOLT-4 = tested on: MOLT-4
NCI-H23 = tested on: NCI-H23

Measured: GI50

Cc1cc(S(=O)(=O)n2ccnc2Oc2ccccc2)c(SSc2cc(Cl)c(C)cc2S(=O)(=O)n2ccnc2Oc2ccccc2)cc1Cl
inactive: A498 > 100 µM | A549 > 100 µM | HCT-116 > 100 µM | HL-60 2.32 µM | HT-29 > 100 µM | MCF7 > 100 µM | MDA-MB-231 > 100 µM | Malme-3M 57.5 µM | OVCAR-3 > 100 µM | OVCAR-4 35.3 µM | OVCAR-8 > 100 µM | PC-3 > 100 µM | SF-539 > 100 µM | SK-MEL-28 > 100 µM | SK-MEL-5 24.9 µM | U-251 > 100 µM

CCOC(=O)/C=C/c1cccc(F)c1
inactive: A498 > 100 µM | A549 > 100 µM | HCT-116 > 100 µM | HL-60 > 100 µM | HT-29 > 100 µM | MCF7 > 100 µM | MDA-MB-231 > 100 µM | MOLT-4 > 100 µM | Malme-3M > 100 µM | NCI-H23 > 100 µM | OVCAR-4 > 100 µM | OVCAR-8 > 100 µM | PC-3 > 100 µM | SF-539 > 100 µM | SK-MEL-28 > 100 µM | U-251 > 100 µM

O=C(NNc1nc(-c2ccccc2)cs1)C(F)(F)F
inactive: A498 37.1 µM | A549 39.2 µM | HCT-116 47.3 µM | HL-60 33.1 µM | HT-29 47.2 µM | MCF7 > 100 µM | MDA-MB-231 68.7 µM | MOLT-4 20 µM | Malme-3M 53.7 µM | NCI-H23 34 µM | OVCAR-4 > 100 µM | OVCAR-8 33.4 µM | PC-3 37.8 µM | SK-MEL-28 25.8 µM | SK-MEL-5 35.3 µM | U-251 26.3 µM

CN(C)c1ccc(/N=C2/NC(=N\c3ccccc3)/C(=N/c3ccccc3)S2)cc1
inactive: A498 87.3 µM | A549 > 100 µM | HCT-116 85.3 µM | HL-60 > 100 µM | HT-29 > 100 µM | MCF7 19.9 µM | MDA-MB-231 > 100 µM | MOLT-4 89.1 µM | Malme-3M > 100 µM | NCI-H23 > 100 µM | OVCAR-3 > 100 µM | OVCAR-4 > 100 µM | OVCAR-8 66.5 µM | PC-3 > 100 µM | SF-539 > 100 µM | SK-MEL-28 > 100 µM | SK-MEL-5 > 100 µM

CCc1cc2c(cc1O)CC[C@@H]1[C@@H]2CC[C@]2(C)[C@@H](O)CC[C@@H]12
inactive: A498 18.7 µM | A549 8.05 µM | HL-60 3.02 µM | HT-29 15 µM | MCF7 3.63 µM | MDA-MB-231 7.93 µM | MOLT-4 5 µM | Malme-3M 2.97 µM | NCI-H23 7.14 µM | OVCAR-4 12.3 µM | OVCAR-8 7.24 µM | PC-3 12.2 µM | SK-MEL-28 5.14 µM | SK-MEL-5 7.11 µM | U-251 4.76 µM

COc1ccc2c(c1)CCc1cc(OC)ccc1/[N+]([O-])=[N+]\2[O-]
inactive: A498 16.2 µM | A549 26.4 µM | HCT-116 12.4 µM | HL-60 6.11 µM | HT-29 19.6 µM | MCF7 9.29 µM | MDA-MB-231 18.7 µM | MOLT-4 3.67 µM | Malme-3M 19.5 µM | NCI-H23 23.1 µM | OVCAR-3 16.6 µM | OVCAR-8 10.4 µM | PC-3 14.8 µM | SF-539 21.2 µM | SK-MEL-28 18.7 µM | SK-MEL-5 16.3 µM | U-251 17.6 µM
